Assay results taken from patent US10167258B2, “Inhibitors of mitochondrial pyruvate dehydrogenase kinase isoforms 1-4 and uses thereof” (The Board of Regents of the University of Texas System, priority 2013, dated 2019).
Like-named read-outs stand apart in the source and are kept apart here.

Assays:
[1] = target: T1, N-terminal domain of human Hsp90 (Homo sapiens, UniProt P07900); assay: Isothermal titration calorimetry (ITC), binding to Hsp90 N-terminal domain; details: read-out: Kd, nM for Hsp 90
T1 construct: the N-terminal domain (residue 1-236) of human Hsp90; His6 (N); SUMO (N); made in house; host or cells: E. coli BL21
Description: The sequence encoding the N-terminal domain was amplified and cloned into the pSUMO expression vector (Lifesensors, Malvern, Pa.). The fusion protein of His6-tagged SUMO-Hsp90 N-terminal domain was expressed in E. coli BL21 cells and purified with Ni-NTA resin (Qiagen) and on Superdex-200 column in 20 mM Tris.HCl, pH 7.5 and 500 mM NaCl.
(§1) The PDK2 or Hsp90 N-terminal domain protein was dialyzed against one liter of the dialysis buffer containing 50 mM Tris-Cl, pH 7.5, 50 mM KCl, 1 mM MgCl2, and 0.5 mM β-mercaptoethanol. […] All of the ITC data were initially analyzed by the NITPIC program (32) to construct the baseline, followed by curve-fitting in Origin 7 to obtain binding parameters.

PDK2 [2] = target: T2, PDK2 (Homo sapiens, UniProt Q15119); assay: Assay for inhibition of PDK activity, PDK2; type: biochemical; set-up: made in house
Description: (§2) Recombinant human PDK2 was expressed and purified as a N terminal His6-tagged SUMO fusion protein with a tobacco-etch-virus protease (TEV) cleavage site in front of the N-terminal PDK2 sequence (26), and was used directly for the activity assay and binding affinity analyses. […] The purified protein was concentrated to 35-40 mg/ml and stored at −80° C. in small aliquots. Recombinant human PDK1, PDK3 and PDK4 were expressed and purified as described previously (26).
(§3) The remaining steps were described previously (26). IC50 values were obtained by the curve fitting of inhibition isotherms using Prism 6 (GraphPad software, Inc.).

PDK4 [3] = target: T3, PDK4 (Homo sapiens, UniProt Q16654); assay: Assay for inhibition of PDK activity, PDK4; type: biochemical; set-up: made in house
Description: as §2, §3
Target sequence in this assay (Q16654 whole entry): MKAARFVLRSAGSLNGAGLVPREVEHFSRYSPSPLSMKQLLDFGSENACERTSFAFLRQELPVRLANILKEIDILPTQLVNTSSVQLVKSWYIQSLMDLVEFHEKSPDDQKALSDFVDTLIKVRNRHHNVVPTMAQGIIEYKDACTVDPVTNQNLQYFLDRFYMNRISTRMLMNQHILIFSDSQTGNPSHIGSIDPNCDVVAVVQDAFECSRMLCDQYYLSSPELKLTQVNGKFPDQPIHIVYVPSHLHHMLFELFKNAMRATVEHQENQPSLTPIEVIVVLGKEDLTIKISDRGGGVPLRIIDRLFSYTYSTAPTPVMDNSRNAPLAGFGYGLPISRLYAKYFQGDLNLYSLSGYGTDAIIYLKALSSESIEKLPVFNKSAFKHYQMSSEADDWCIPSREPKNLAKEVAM

PDK2 [4] = target: T2, PDK2; assay: Isothermal titration calorimetry (ITC), binding to PDK2; set-up: made in house
Description: as §2, §1

PDK = details: literature value; read-out: IC50 (known PDK inhibitor); cited from earlier work
PDK4 [5] = target: T3, PDK4; details: literature value; cited from earlier work
Target sequence in this assay (Q16654 whole entry, species assumed): as the sequence (Q16654 whole entry) above

Hsp90 = details: literature value; cited from earlier work
PDK3 [6] = target: T4, PDK3 (Homo sapiens, UniProt Q15120); details: literature value; read-out: IC50 (ATP-competitive inhibitor, PDK3); cited from earlier work
Target sequence in this assay (Q15120 whole entry, species assumed): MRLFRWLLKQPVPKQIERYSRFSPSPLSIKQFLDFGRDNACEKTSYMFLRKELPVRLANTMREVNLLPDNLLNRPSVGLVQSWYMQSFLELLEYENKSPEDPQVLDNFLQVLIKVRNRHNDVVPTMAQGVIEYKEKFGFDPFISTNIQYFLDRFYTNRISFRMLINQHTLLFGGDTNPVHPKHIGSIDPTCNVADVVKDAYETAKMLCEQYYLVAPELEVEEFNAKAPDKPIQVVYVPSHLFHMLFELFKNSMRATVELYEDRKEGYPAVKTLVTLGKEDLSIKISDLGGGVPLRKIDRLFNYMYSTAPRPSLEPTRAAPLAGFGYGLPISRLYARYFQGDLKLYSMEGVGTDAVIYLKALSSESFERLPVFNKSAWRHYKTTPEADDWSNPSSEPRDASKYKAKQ

human PDK1 = target: T5, human PDK1 (Homo sapiens, UniProt Q15118); assay: Assay for inhibition of PDK activity, PDK1; type: biochemical
T5 construct: made in house
Description: (§4) Recombinant human PDK2 was expressed and purified as a N terminal His6-tagged SUMO fusion protein with a tobacco-etch-virus protease (TEV) cleavage site in front of the N-terminal PDK2 sequence (26), and was used directly for the activity assay and binding affinity analyses. For crystallization, the protein was subjected to a TEV-protease digestion, and the untagged PDK2 protein was purified on a Superdex 200 column in 20 mM Tris-HCl (pH 8.0), 150 mM NaCl and 5 mM DTT. The purified protein was concentrated to 35-40 mg/ml and stored at −80° C. in small aliquots. Recombinant human PDK1, PDK3 and PDK4 were expressed and purified as described previously (26).
(§5) . The remaining steps were described previously (26). IC50 values were obtained by the curve fitting of inhibition isotherms using Prism 6 (GraphPad software, Inc.).

PDK2 [7] = target: T2, PDK2; assay: biochemical
Description: The kinase-profiling of PS8 on 21 human protein kinases were performed at Reaction Biology Corp. (Malvern, Pa.). […] Each protein kinase was also tested against its known inhibitor as a positive control.
The selectivity of PS8 was studied by determining IC50 for the inhibition of a 21-kinase panel including PDK2. […] Except PDK4, PDK isoforms anchor to the E2/E3BP of PDC for optimal kinase activity in vivo.

[8] = Half-life in vitro in hepatic S9 fractions; type: in vitro ADME; details: data not shown
[9] = Pharmacokinetic studies in mice after IP dosing; type: in vivo; details: 20 mg/kg IP, female CD-1 mice, plasma
Description: Twenty-one male C57BL/6J mice were dosed IP with 70 mg/kg PS-10, 0.2 ml/mouse formulated as 10% DMSO/20% water/70% of 25% (2-hydroxypropyl)-β-cyclodextrin for determination of PS-10 PK. Twenty-one female CD-1 mice were dosed IP with 20 mg/kg PS-8, 0.2 ml/mouse formulated as 5% ethanol and 95% of 0.1 M sodium bicarbonate pH 9.0 for determination of PS-8 PK. Animal (n=3) were sacrificed and whole blood was harvested for each time point. Plasma was processed from whole blood by centrifugation of the ACD treated blood for 10′ at 10,000 rpm in a standard centrifuge. The analytical processing of blood samples and pharmacokinetics studies using LC/MS/MS were as described previously with LC/MS/MS methods optimized for detection of PS-10 and PS-8 (33).

PDK3 [10] = target: T4, PDK3; assay: Assay for inhibition of PDK activity, PDK3; type: biochemical; set-up: made in house
Description: as §4, §5
Target sequence in this assay (Q15120 whole entry): as the sequence (Q15120 whole entry, species assumed) above

[11] = Table 1, inhibitor 31.6 nM to 1 mM, read-out: IC50, μM for PDK2
[12] = Table 1, inhibitor 31.6 nM to 1 mM, read-out: IC50, μM for PDK4

T5 sequence (Q15118 29-436): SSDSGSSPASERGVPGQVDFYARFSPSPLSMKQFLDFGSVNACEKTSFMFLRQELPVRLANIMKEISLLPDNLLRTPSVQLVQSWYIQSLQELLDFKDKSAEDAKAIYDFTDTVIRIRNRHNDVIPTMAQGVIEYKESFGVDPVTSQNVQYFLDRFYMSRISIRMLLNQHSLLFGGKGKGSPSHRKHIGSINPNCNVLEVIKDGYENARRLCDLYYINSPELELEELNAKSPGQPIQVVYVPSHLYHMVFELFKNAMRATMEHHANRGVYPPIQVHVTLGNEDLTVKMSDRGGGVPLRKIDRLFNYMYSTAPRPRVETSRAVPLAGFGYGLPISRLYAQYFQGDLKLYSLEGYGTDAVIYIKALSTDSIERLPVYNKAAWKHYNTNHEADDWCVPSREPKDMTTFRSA

With `O=S(=O)(c1ccc(O)cc1O)N1Cc2ccccc2C1` [PS2, 4-(isoindolin-2-ylsulfonyl)benzene-1,3-diol] the Kd [1] was 50900 nM, the IC50 (PDK2 [2]; [11]) was 2.11 µM and the IC50 (PDK4 [3]; [12]) was 2.2 µM. The Kd (PDK2 [4]; ITC, read-out: Kd, nM for PDK2) was 711 nM and the “shift in binding affinities in favor of PDK2 (carbonyl in PA7 to sulfonyl in PS2)” value (PDK2 [4]; from Kd values for PDK2 and Hsp90) was 4,791 fold.
For `C[C@@H]1CN(C(=O)[C@@](C)(O)C(F)(F)F)[C@@H](C)CN1C(=O)c1ccc(C#N)cc1` [compound 3, (+)-1-N-[2,5-(S,R)-dimethyl-4-N-(4-cyanobenzoyl)piperazine]-(R)-3,3,3-trifluoro-2-hydroxy-2-methylpropan-amide], the IC50 (PDK) is given as 0.016 µM.
Molecule `O=C(c1cc(Br)c(O)cc1O)N1Cc2ccccc2C1` [PA1, (5-bromo-2,4-dihydroxyphenyl)(isoindolin-2-yl)methanone] has an IC50 (PDK2 [2]; [11]) of 6.78 µM, an IC50 (PDK4 [3]; [12]) of 1.86 µM and a Kd (PDK2 [4]; ITC, read-out: Kd, nM for PDK2) of 3570 nM.
Work on `O=S(=O)(c1ccc(O)cc1O)N1Cc2ccc(NC3CCNCC3)cc2C1` [PS35] yielded an IC50 (PDK2 [2]) of 0.61 µM and a Kd (PDK2 [4]) of 143 nM.
In the case of `COc1ccc(-c2c(-c3ccc(O)cc3O)n[nH]c2C)cc1` [Compound M77976], the IC50 (PDK4 [5]) is given as 648 µM and the IC50 (Hsp90) is given as 4.4 µM.
`O=S(=O)(c1ccc(O)cc1O)N1Cc2ccc(NC3CCN(CC(O)CO)CC3)cc2C1` (stereo not shown) [PS38] showed a Kd (PDK2 [4]) of 188 nM.
In the case of `O=C(c1ccc(O)cc1O)N1Cc2ccccc2C1` [PA7, (2,4-dihydroxyphenyl)(isoindolin-2-yl)methanone], the IC50 (PDK2 [2]; [11]) is reported as 5.68 µM, the IC50 (PDK4 [3]; [12]) is reported as 1.05 µM and the Kd (PDK2 [4]; ITC, read-out: Kd, nM for PDK2) is reported as 1830 nM.
In the case of `O=C(O)CCCCN1CCC(Nc2ccc3c(c2)CN(S(=O)(=O)c2ccc(O)cc2O)C3)CC1` [PS41], the Kd (PDK2 [4]) is reported as 1400 nM.
Work on `O=C(O)CCCN1CCC(Nc2ccc3c(c2)CN(S(=O)(=O)c2ccc(O)cc2O)C3)CC1` [PS42] yielded a Kd (PDK2 [4]) of 917 nM.
In the case of `C[C@@H]1C[C@H]2O[C@@H]2/C=C\C=C\C(=O)Cc2c(Cl)c(O)cc(O)c2C(=O)O1` [Radicicol, radicicol, reference compound], the IC50 (PDK3 [6]) is given as 230 to 400 µM, the IC50 (PDK2 [2]; [11]) is given as 77.8 µM and the Kd (PDK2 [4]; ITC, read-out: Kd, nM for PDK2) is given as 18600 nM.
Work on `O=S(=O)(c1ccc(O)cc1O)N1Cc2ccc(O)cc2C1` [PS8, 4-((5-hydroxyisoindolin-2-yl)sulfonyl)benzene-1,3-diol] yielded an IC50 (human PDK1; absence of E2/E3BP core (−)) of 2.5 ± 0.14 µM, an IC50 (human PDK1; presence of E2/E3BP core (+)) of 2.14 ± 0.33 µM and a Kd [1] of 60100 nM. The IC50 (PDK2 [7]) was 0.07 µM, the “IC50 of all other kinases on the panel relative to PDK2” value (PDK2 [7]; 21-kinase panel, next lowest CDK1/cyclin B) was “at least 3 orders of magnitude” and the half-life [8] was > 4 h. The CL/F [9] was 1.55 mL/min, the AUC(0-t) ([9]; mouse) was 5170 ng·h/mL and the Cmax ([9]; mouse) was 7600 ng/mL. For the same molecule, the Tmax ([9]; mouse) was 0.167 h, the half-life ([9]; mouse, read-out: Terminal T1/2) was 1.55 h and the Vd/F ([9]; mouse, read-out: Vz/F) was 0.209 L. For the same molecule, the IC50 (PDK2 [2]; [11]) was 1.07 µM, the IC50 (PDK2 [2]; presence of E2/E3BP core (+), read-out: IC50 for PDK2) was 0.71 ± 0.14 µM and the IC50 (PDK4 [3]; [12]) was 1.1 µM. It also gave an IC50 (PDK4 [3]; presence of E2/E3BP core (+), read-out: IC50 for PDK4) of 0.84 ± 0.08 µM, an IC50 (PDK3 [10]; absence of E2/E3BP core (−)) of 13.7 ± 2.08 µM and an IC50 (PDK3 [10]; presence of E2/E3BP core (+)) of 2.55 ± 0.38 µM. For the same molecule, the Kd (PDK2 [4]; ITC, read-out: Kd, nM for PDK2) was 426 nM.
For `O=C(C1=C[C@@H](O)[C@@H](O)[C@H](O)C1)N1CCC(Nc2ccc3c(c2)CN(S(=O)(=O)c2ccc(O)cc2O)C3)CC1` [PS40], the Kd (PDK2 [4]) was 403 nM.
For `O=C(C1C[C@@H](O)C(O)[C@H](O)C1)N1CCC(Nc2ccc3c(c2)CN(S(=O)(=O)c2ccc(O)cc2O)C3)CC1` (stereo partly shown) [PS39], the Kd (PDK2 [4]) was 338 nM.
